Laboratory results from the CheMixHub viscosity set.

Assay: xn = mol fraction of the nth substance listed

Cc1ncc[nH]1 + O
viscosity [mPa·s], 100 kPa
Details | x1 = 0.0238 | x1 = 0.0373 | x1 = 0.052 | x1 = 0.0682 | x1 = 0.086
298.15 K | 1.151 | 1.312 | 1.494 | 1.718 | 1.971
303.15 K | 1.02 | 1.16 | 1.315 | 1.498 | 1.707
313.15 K | 0.838 | 0.933 | 1.07 | 1.214 | 1.379
323.15 K | 0.696 | 0.767 | 0.87 | 0.978 | 1.1

Brc1ccccc1 + COCCO
303.15 K, 101.33 kPa
Details | viscosity [mPa·s]
x2 = 0.1188 | 0.997
x2 = 0.219 | 1.024
x2 = 0.3173 | 1.06
x2 = 0.4336 | 1.114
x2 = 0.4974 | 1.147
x2 = 0.5621 | 1.179
x2 = 0.7198 | 1.255
x2 = 0.8018 | 1.296
x2 = 0.9254 | 1.352

CC(C)[N+](=O)[O-] + Cc1cc(C)cc(C)c1
293.15 K, 101.33 kPa
Details | viscosity [mPa·s]
x1 = 0.0955 | 0.691
x1 = 0.1983 | 0.691
x1 = 0.2294 | 0.69
x1 = 0.4005 | 0.691
x1 = 0.5048 | 0.696
x1 = 0.6007 | 0.701
x1 = 0.7022 | 0.708
x1 = 0.8014 | 0.717
x1 = 0.898 | 0.738

Brc1ccccc1 + CN1CCCC1=O
viscosity [mPa·s], 101 kPa
Details | x2 = 0.1084 | x2 = 0.2149 | x2 = 0.3193 | x2 = 0.4219 | x2 = 0.5226 | x2 = 0.6215 | x2 = 0.7186 | x2 = 0.8141 | x2 = 0.9078
303.15 K | 1.068 | 1.146 | 1.22 | 1.284 | 1.344 | 1.396 | 1.441 | 1.484 | 1.522
308.15 K | 1.023 | 1.089 | 1.148 | 1.201 | 1.25 | 1.29 | 1.326 | 1.358 | 1.382
313.15 K | 0.9408 | 1.005 | 1.061 | 1.113 | 1.159 | 1.199 | 1.236 | 1.268 | 1.295
318.15 K | 0.8512 | 0.9073 | 0.9593 | 1.008 | 1.052 | 1.09 | 1.126 | 1.157 | 1.184

O=C1CCCO1 + CC#N
Details | viscosity [mPa·s]
293.15 K, 101 kPa, x2 = 0.1054 | 1.604
293.15 K, 101 kPa, x2 = 0.1934 | 1.392
293.15 K, 101 kPa, x2 = 0.3007 | 1.172
293.15 K, 101 kPa, x2 = 0.4029 | 0.998
293.15 K, 101 kPa, x2 = 0.5036 | 0.849
293.15 K, 101 kPa, x2 = 0.6012 | 0.732
293.15 K, 101 kPa, x2 = 0.702 | 0.608
293.15 K, 101 kPa, x2 = 0.8008 | 0.518
293.15 K, 101 kPa, x2 = 0.8993 | 0.433
298.15 K, 101 kPa, x2 = 0.1054 | 1.484
298.15 K, 101 kPa, x2 = 0.1934 | 1.292
298.15 K, 101 kPa, x2 = 0.3007 | 1.092
298.15 K, 101 kPa, x2 = 0.4029 | 0.934
298.15 K, 101 kPa, x2 = 0.5036 | 0.8
298.15 K, 101 kPa, x2 = 0.6012 | 0.691
298.15 K, 101 kPa, x2 = 0.702 | 0.576
298.15 K, 101 kPa, x2 = 0.8008 | 0.495
298.15 K, 101 kPa, x2 = 0.8993 | 0.414
298.15 K, 101.33 kPa, x2 = 0.0503 | 1.591
298.15 K, 101.33 kPa, x2 = 0.0938 | 1.471
298.15 K, 101.33 kPa, x2 = 0.1387 | 1.375
298.15 K, 101.33 kPa, x2 = 0.2001 | 1.253
298.15 K, 101.33 kPa, x2 = 0.249 | 1.164
298.15 K, 101.33 kPa, x2 = 0.3005 | 1.074
298.15 K, 101.33 kPa, x2 = 0.3969 | 0.925
298.15 K, 101.33 kPa, x2 = 0.4459 | 0.86
298.15 K, 101.33 kPa, x2 = 0.4998 | 0.79
298.15 K, 101.33 kPa, x2 = 0.5515 | 0.728
298.15 K, 101.33 kPa, x2 = 0.5979 | 0.676
298.15 K, 101.33 kPa, x2 = 0.7014 | 0.571
298.15 K, 101.33 kPa, x2 = 0.7522 | 0.525
298.15 K, 101.33 kPa, x2 = 0.8006 | 0.485
298.15 K, 101.33 kPa, x2 = 0.8359 | 0.456
298.15 K, 101.33 kPa, x2 = 0.8994 | 0.409
298.15 K, 101.33 kPa, x2 = 0.9532 | 0.365
303.15 K, 101 kPa, x2 = 0.1054 | 1.378
303.15 K, 101 kPa, x2 = 0.1934 | 1.204
303.15 K, 101 kPa, x2 = 0.3007 | 1.021
303.15 K, 101 kPa, x2 = 0.4029 | 0.877
303.15 K, 101 kPa, x2 = 0.5036 | 0.756
303.15 K, 101 kPa, x2 = 0.6012 | 0.655
303.15 K, 101 kPa, x2 = 0.702 | 0.547
303.15 K, 101 kPa, x2 = 0.8008 | 0.473
303.15 K, 101 kPa, x2 = 0.8993 | 0.395
308.15 K, 101 kPa, x2 = 0.1054 | 1.284
308.15 K, 101 kPa, x2 = 0.1934 | 1.126
308.15 K, 101 kPa, x2 = 0.3007 | 0.958
308.15 K, 101 kPa, x2 = 0.4029 | 0.827
308.15 K, 101 kPa, x2 = 0.5036 | 0.716
308.15 K, 101 kPa, x2 = 0.6012 | 0.621
308.15 K, 101 kPa, x2 = 0.702 | 0.52
308.15 K, 101 kPa, x2 = 0.8008 | 0.452
308.15 K, 101 kPa, x2 = 0.8993 | 0.378
313.15 K, 101 kPa, x2 = 0.1054 | 1.201
313.15 K, 101 kPa, x2 = 0.1934 | 1.055
313.15 K, 101 kPa, x2 = 0.3007 | 0.902
313.15 K, 101 kPa, x2 = 0.4029 | 0.781
313.15 K, 101 kPa, x2 = 0.5036 | 0.68
313.15 K, 101 kPa, x2 = 0.6012 | 0.591
313.15 K, 101 kPa, x2 = 0.702 | 0.496
313.15 K, 101 kPa, x2 = 0.8008 | 0.431
313.15 K, 101 kPa, x2 = 0.8993 | 0.363
318.15 K, 101 kPa, x2 = 0.1054 | 1.125
318.15 K, 101 kPa, x2 = 0.1934 | 0.991
318.15 K, 101 kPa, x2 = 0.3007 | 0.85
318.15 K, 101 kPa, x2 = 0.4029 | 0.74
318.15 K, 101 kPa, x2 = 0.5036 | 0.647
318.15 K, 101 kPa, x2 = 0.6012 | 0.563
318.15 K, 101 kPa, x2 = 0.702 | 0.473
318.15 K, 101 kPa, x2 = 0.8008 | 0.413
318.15 K, 101 kPa, x2 = 0.8993 | 0.344
323.15 K, 101 kPa, x2 = 0.1054 | 1.058
323.15 K, 101 kPa, x2 = 0.1934 | 0.934
323.15 K, 101 kPa, x2 = 0.3007 | 0.803
323.15 K, 101 kPa, x2 = 0.4029 | 0.702
323.15 K, 101 kPa, x2 = 0.5036 | 0.617
323.15 K, 101 kPa, x2 = 0.6012 | 0.538
323.15 K, 101 kPa, x2 = 0.702 | 0.452
323.15 K, 101 kPa, x2 = 0.8008 | 0.396
323.15 K, 101 kPa, x2 = 0.8993 | 0.33

CCCCn1cc[n+](C)c1.O=S(=O)([N-]S(=O)(=O)C(F)(F)F)C(F)(F)F + CCCCn1cc[n+](C)c1.F[P-](F)(F)(F)(F)F
Details | viscosity [mPa·s]
318.15 K, 100 kPa, x1 = 0.25 | 58.45
